Where “and” joins values, the source holds several entries; their conditions need not be identical. Identical values can stand only once.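 Assay format: 96-well plates, 48-hour exposure. At the GI50, growth is halved. TGI is the concentration that stops growth completely.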

The results in this text go back to PubChem BioAssay (NCI).

Common to all, as to assay: DTP human tumour cell line panel, 48 h
The test system of experiment [1] is KM12 colon.
The subject of experiment [2] is UO-31 renal.
Experiment [3] deals with SK-MEL-2 melanoma.
Experiment [4] concerns IGROV1 ovarian.
In experiment [5] the test system is HCT-15 colon.
Experiment [6] deals with SN12C renal.
Experiment [7] concerns NCI-H522 lung.
Experiment [8] deals with SNB-75 CNS.
For experiment [9], the system named is OVCAR-5 ovarian.
Experiment [10] relates to HOP-92 NSCLC.

`CCCCCCCCCCCCCP(=O)(OC)OC`: the total growth inhibition concentration (TGI) was 31.9 µM in experiment [1]; 29.8 µM in experiment [2]; 31.3 µM in experiment [3]; 35.5 µM in [4]; 31.6 µM in experiment [5]; 35 µM in experiment [6]. For the same molecule, the TGI in [7] stood at 26.6 µM; in experiment [8], 38.1 µM; in experiment [9], 30.6 µM; in [10], 35 µM.
As to `O=C(CO)CC(=O)C(=O)Nc1cccc(C(F)(F)F)c1`, the concentration for total growth inhibition (TGI) in experiment [1], in experiment [2], in experiment [3], in experiment [4], in experiment [5] and in [6] was more than 100 µM throughout. In addition, the TGI in [7], in experiment [8], in experiment [9] and in experiment [10] was more than 100 µM throughout.
As to `O=C(C(=O)c1cccnc1)c1cccnc1`, the GI50 in experiment [1], in experiment [2], in [3], in experiment [4], in experiment [5] and in experiment [6] was more than 100 µM throughout. The GI50 in experiment [7], in [8], in [9] and in [10] was more than 100 µM throughout. The TGI in [1], in experiment [2], in [3], in [4], in [5] and in [6] was more than 100 µM throughout. Further, the TGI in experiment [7], in experiment [8], in [9] and in experiment [10] was more than 100 µM throughout.
As for `CSc1nc(SC)c2c(C)c(Br)[nH]c2n1`, the TGI in experiment [1], in experiment [2], in experiment [3], in experiment [4], in [5] and in experiment [6] was more than 100 µM throughout. Further, the TGI in experiment [7], in experiment [8], in experiment [9] and in experiment [10] was more than 100 µM throughout.
Take `CC(=O)OCC1OC([S-])C(OC(C)=O)C(OC(C)=O)C1OC(C)=O.[Au+].c1ccc(CN2[CH-]N(Cc3ccccc3)C(c3ccccc3)=C2c2ccccc2)cc1`: the GI50 in experiment [1] was 4.32 µM and 0.98 µM; in experiment [2], 1.83 µM and 0.445 µM; in [3], 2.77 µM and 0.656 µM; in experiment [4], 1.83 µM and 0.514 µM; in experiment [5], 1.8 µM and 0.906 µM; in experiment [7] it was 2.03 µM and 0.551 µM. Besides, the GI50 in [8] is 1.83 µM and 0.412 µM; in experiment [9] it was 3.35 µM and 0.783 µM. The TGI in experiment [1] was 16.9 µM and 5.14 µM; in experiment [2], 4.31 µM and 1.99 µM; in experiment [3], 8.11 µM and 2.2 µM; in [4] it was 3.91 µM and 1.44 µM; in [5], 3.68 µM and 2 µM; in [6], 5.08 µM and 1.18 µM. In addition, the TGI in experiment [7] was 4.7 µM and 1.56 µM; in [8] it was 7.21 µM and 4.4 µM; in experiment [9], 11.9 µM and 3.1 µM; in experiment [10] it was 3.93 µM and 0.437 µM.
For the molecule `CCCCCC1CC=CC(NC(=O)OCc2ccccc2)C1/C=C/CCCC1OCCO1` (configuration not stated), the TGI was more than 100 µM in experiment [1]; 72.2 µM in experiment [2]; more than 100 µM in experiment [3]; more than 100 µM in [4]; more than 100 µM in [5]; more than 100 µM in experiment [6]. Also, the TGI in experiment [7], in experiment [8], in [9] and in [10] was more than 100 µM each time.
In the case of `CC[C@H](C)[C@H](NC(=O)[C@H]1CCCCN1C)C(=O)N(C)[C@H](C[C@@H](OC(C)=O)c1nc(C(=O)NC23C4C5C2C2C3C4C52C(=O)OC)cs1)C(C)C` (some centres not stated), the GI50 in experiment [1] is 0.00309 µM and 0.0025 µM; in experiment [2], 0.0358 µM and 0.0114 µM; in experiment [3], 0.00185 µM and 0.0025 µM; in experiment [4] it was 0.00242 µM and 0.0025 µM; in experiment [5], 0.00763 µM and 0.00302 µM; in experiment [6], 0.00199 µM and 0.0025 µM. For the same molecule, the GI50 in experiment [7] is 0.000331 µM and < 0.0025 µM; in experiment [8], 0.00125 µM and 0.0025 µM; in [9] it was 0.0702 µM and 0.0707 µM; in experiment [10], 5.44 µM. In addition, the TGI in experiment [1] was more than 25 µM; in experiment [2], more than 25 µM; in [3], 0.00452 µM; in [4], 20.1 µM; in experiment [5] it was more than 25 µM; in experiment [6] it was 9.33 µM. For the same molecule, the TGI in experiment [8], in experiment [9] and in experiment [10] was more than 25 µM throughout.
For `CCN(CC)CCOc1ccc(NC(=O)C(C(C)C)N2C(=O)/C(=C/c3ccc(Br)cc3)SC2=S)cc1` (configuration not stated), the GI50 in experiment [1] was 3.19 µM; in [2] it was 2.72 µM; in experiment [3], 14.9 µM; in experiment [4], 2.61 µM; in experiment [5], 2.01 µM; in experiment [6] it was 1.71 µM. In addition, the GI50 in experiment [7] was 2.03 µM; in experiment [8], 7.82 µM; in [9], 2.89 µM; in experiment [10], 2.53 µM. Moreover, the TGI in experiment [1] worked out at 11.3 µM; in experiment [2], 12.6 µM; in [3], 30.9 µM; in [4] it was 8.03 µM; in experiment [5], 4.31 µM; in experiment [6], 3.29 µM. Further, the TGI in experiment [7] stood at 4.55 µM; in experiment [8] it was 21.1 µM; in [9] it was 10.4 µM; in [10], 13.5 µM.
Turning to `CN(C)C[C@@H]1CCn2cc(c3ccccc32)C2=C(C(=O)NC2=O)c2cn(c3ccccc23)CCO1`, the GI50 is 1.82 µM in experiment [1]; 0.539 µM in experiment [2]; 2 µM in experiment [3]; 1.3 µM in experiment [4]; 1.61 µM in experiment [5]; 0.679 µM in experiment [6]. Besides, the GI50 is 0.763 µM in experiment [7], 1.4 µM in experiment [8], 1.34 µM in [9] and 0.446 µM in experiment [10]. In addition, the total growth inhibition concentration (TGI) in [1] is more than 10 µM; in experiment [2], 3.23 µM; in experiment [3] it was more than 10 µM; in experiment [4] it was 8.49 µM; in experiment [5], more than 10 µM; in [6] it was 5.85 µM. For the same molecule, the TGI is 7.31 µM in experiment [7], 5.96 µM in experiment [8], more than 10 µM in experiment [9] and 6.31 µM in experiment [10].
Take `O=C1C(c2ccccc2)=[N+]([O-])c2cc([N+](=O)[O-])ccc21`: the TGI in experiment [1] was 47.5 µM; in experiment [2], more than 100 µM; in experiment [3], more than 100 µM; in [4], 53.5 µM; in experiment [5], 56.5 µM; in experiment [6], 59.6 µM. For the same molecule, the total growth inhibition concentration (TGI) was 29.1 µM in experiment [7], more than 100 µM in experiment [8], more than 100 µM in experiment [9] and 64.5 µM in experiment [10].
